In one test the target is 3CLpro^D155A/C156S (Severe acute respiratory syndrome coronavirus 2, UniProt P0DTD1, C3419S/D3418A). In kind it is biochemical, SARS-CoV-2. To be noted: read-out: IC50, 3CLpro^D155A/C156S activity.
The next test concerns the target PLpro^C112S (Severe acute respiratory syndrome coronavirus 2, UniProt P0DTD1, C1674S). In kind it is binding, SARS-CoV-2.

We go through one molecule from article PMC8886686 (Journal of Inorganic Biochemistry, 2022).

On to `O=C([O-])[C@H](O)[C@@H](O)[C@H](O)[C@H](O)CO.O=C([O-])[C@H](O)[C@@H](O)[C@H](O)[C@H](O)CO.[Zn+2]` [Zn^2+, zinc gluconate], for which the IC50 at 3CLpro^D155A/C156S was 1.54 ± 0.05 µM. The “Zn2+ binding capacity of PLpro^C112S (ICP-MS)” value on PLpro^C112S is 0.71 ± 0.01 eq.
